Reference: patent US6288113A, “Angiogenesis promoters” (Welfide Corporation, priority 1997, dated 2001)

Columns and labels:
Type in all cases: in vivo
angiogenesis [1] = assay: Rat sponge model, observation of photograph of sponge surface (Experimental Example 1); conditions: AS administration group; after 4 days; visual observation
Description: (§1) As the promoter of the present invention, the AS-containing lipid emulsion of Example 4 was diluted with a 10% lipid emulsion (Intralipos®, manufactured by the Green Cross Corporation, produced and sold by Yoshitomi Pharmaceutical Industries, Ltd. since April 1, 1998) and used. For the vehicle administration control group, the above-mentioned 10% lipid emulsion alone was used.
(§2) Rats were anesthetized and the dorsal median line was incised for about 1 cm and an air pocket was made subcutaneously at about 2.5 cm toward the tail side with a Kocher clamp. A hemostatic gelatin sponge (Spongel®, 1.0×1.0×0.5 cm; manufactured by Yamanouchi Pharmaceutical Co., Ltd.) infiltrated with physiological saline was implanted therein to prepare rat sponge models.
The incisive region was sutured, antisepticized and intramulscular injection of an antibiotic was given, after which the rats were returned to the breeding cages. Each preparation was bolus administered via the tail vein once a day from the day of sponge implanting to day 4. After 4 days from the implanting, 8 rats per group were sacrificed. […] Hemoglobin in the extract (100 μl) was quantitated using an assay kit (hemoglobin B-TESTWAKO; manufactured by Wako Pure Chemical Industries, Ltd.). The amount of the hemoglobin in the sponge was calculated and used as the index of angiogenesis.

angiogenesis by b-FGF [2] = assay: Rat sponge model with b-FGF, observation of photograph of sponge surface (Experimental Example 2)
Description: as §1, with “In the same manner as in Experimental Example 1, as” for “As”, “Apr.” for “April”
(§3) Using a hemostatic gelatin sponge infiltrated with physiological saline containing 0.1% BSA (bovine serum albumin) or b-FGF solution (b-FGF 1 mg/ml solution, 100 μl, diluted 10-fold with physiological saline containing 0.1% BSA), and in the same manner as in Experimental Example 1, rat sponge models (6-8 animals per group) were prepared. The vehicle and AS were bolus administered via the tail vein once a day at the volume of 1 ml/kg from the day of sponge implanting to day 4. After 4 days from the implanting, the surface of the sponge was photographed, and the amount of the hemoglobin in the sponge was calculated in the same manner as in Experimental Example 1.

angiogenesis by b-FGF [3] = assay: Rat sponge model with b-FGF, hemoglobin content of sponge (Experimental Example 2); conditions: for Hemoglobin in sponge at 4 days after implanting: mean ± standard error
Description: as §1, with “In the same manner as in Experimental Example 1, as” for “As”, “Apr.” for “April”
as §3
For the evaluation of the angiogenic effect, a multiple comparison test (group 1 versus groups 2, 3) by Dunnett method was performed to examine significant difference, using the vehicle alone administration group (BSA-containing physiological saline in sponge +10% lipid emulsion intravenous injection) as a control. For the evaluation of the relationship between AS and b-FGF, an unpaired t-test (group 2 versus group 3) was performed using the b-FGF alone administration group as a control to examine significant difference. The significance was ascribed at less than 5% risk rate.

angiogenesis [4] = assay: Rat sponge model, hemoglobin content of sponge (Experimental Example 1)
Description: as §1, §2
The incisive region was sutured, antisepticized and intramulscular injection of an antibiotic was given, after which the rats were returned to the breeding cages. Each preparation was bolus administered via the tail vein once a day from the day of sponge implanting to day 4. After 4 days from the implanting, 8 rats per group were sacrificed. The back was opened, and the surrounding tissue was removed trying not to damage the implanted sponge and the surface of the sponge was photographed. All the sponges were taken out and a 0.1M aqueous ammonia (2 ml) was added. The sponges were stood for 4 hr to extract hemoglobin in the sponge. Hemoglobin in the extract (100 μl) was quantitated using an assay kit (hemoglobin B-TESTWAKO; manufactured by Wako Pure Chemical Industries, Ltd.). The amount of the hemoglobin in the sponge was calculated and used as the index of angiogenesis.
For the evaluation of the angiogenic effect, a multiple comparison test by Dunnett method was performed to examine significant difference, using the vehicle administration group as a control. The significance was ascribed at less than 5% risk rate.

Row | Molecule | blood vessels on sponge surface (FIG. 2) (angiogenesis [1]) | blood vessels on sponge surface (FIG. 5) (angiogenesis by b-FGF [2]; AS and b-FGF co-administration group (group 3)) | angiogenesis promoting effect by b-FGF (angiogenesis by b-FGF [3]; AS and b-FGF co-administered, summary) | hemoglobin content of sponge as compared with the b-FGF alone administration group (angiogenesis by b-FGF [3]; AS and b-FGF co-administration group, result in words) | Hemoglobin in sponge at 4 days after implanting (angiogenesis by b-FGF [3]; group 3: AS 3 μg/kg i.v. with b-FGF 1 μg/sponge, n 7, P < 0.05 vs b-FGF alone (unpaired t-test)) [mg/sponge] | Hemoglobin in sponge at 4 days after implanting (angiogenesis [4]; AS 3 μg/kg i.v. bolus via tail vein once a day to day 4, mean ± standard error, P < 0.05 vs vehicle 1.5 ± 0.9 (Dunnett)) [mg/sponge] | hemoglobin content compared with the vehicle administration group (angiogenesis [4]; AS 3 μg/kg i.v. bolus, consecutive, result in words) | promotion of angiogenesis (angiogenesis [4]; summary of hemoglobin content and photograph observation, Experimental Example 1) | blood vessels on sponge surface (FIG. 4) (angiogenesis by b-FGF [2]; b-FGF administration group (group 2)) | hemoglobin content of sponge (angiogenesis by b-FGF [3]; b-FGF alone administration group, after 4 days, result in words) | Hemoglobin in sponge at 4 days after implanting (angiogenesis by b-FGF [3]; group 2: b-FGF 1 μg/sponge, 10% lipid emulsion i.v. 1 ml/kg, n 8, vehicle alone 6.5 ± 0.7) [mg/sponge]
1 | CCCCC[C@H](O)/C=C/[C@@H]1C(CCCCCCC(=O)OCCCC)=C(OC(=O)CCC)C[C@H]1O [AS, butyl 9-butyryloxy-11α,15S-dihydroxyprosta-8,13E-dien-1-oate] | a noticeable blood vessel network that allows visual observation was found, showing superior angiogenesis | more noticeable formation of a blood vessel network was observed, with larger blood vessel diameters | potentiated | increased significantly | 20.7 ± 3.1 | 4.4 ± 0.8 | increased the hemoglobin content compared with the vehicle administration group and a significant difference was observed | promoted angiogenesis | – | – | –
2 | b-FGF: growth factor, basic fibloblast growth factor | – | – | – | – | – | – | – | – | a number of blood vessels were observed on the surface of the sponge, showing formation of a blood vessel network | increased | 11.8 ± 0.9
